For data set [1], the system named is German cockroaches (Blattella germanica). Briefly: Aerosol spray test on adult German cockroaches, moribund and mortal rates. Format: in vivo. The conditions noted are these: aerosol per Formulation Example 2 (0.1 part compound); spray time 1.35 seconds, spray amount about 800 mg, from height 50 cm; ten adults; one day after spraying. The protocol:
(§1) The internal pressure of the container at 20° C. of the aerosols thus fabricated was 0.5 MPa, the spray amount was 3 g/5 seconds, and the representative particle size (XR value) was 14 to 15 μm.
In a plastic container (diameter: 12.4 cm, height: 10.2 cm), ten adult German cockroaches (Blattella germanica) (five males and five females each) were released, and the plastic container was placed in the center of the bottom of a cylindrical chamber of 17.2 cm in diameter. From the height of 50 cm, the aerosol containing each compound listed in Table 2 which was fabricated according to the method mentioned in Formulation Example 2 was sprayed with a spray time of 1.35 seconds and a spray amount of about 800 mg. After a lapse of one day from spraying, the number of dead and moribund individuals was examined, and moribund and mortal rates (%) were determined by the equation 1 below. Dead individuals are completely immobile individuals, and moribund individuals are individuals who cannot get up when turned on their backs.
Moribund and mortal rates (%)={(number of dead individuals+number of moribund individuals)/number of tested individuals}×100 (Equation 1)

The test system of data set [2] is Argentine worker ants (Linepithema humile). Briefly: Aerosol spray test on adult Argentine worker ants, moribund and mortal rates. It is filed as in vivo. The settings on record: aerosol per Formulation Example 2 (0.1 part compound), from height 60 cm, ten adult workers, seven days after spraying. On the procedure: as §1
In a plastic container (diameter: 10 cm, height: 4.5 cm) lined with a filter paper (diameter: 8.2 cm), ten adult Argentine worker ants (Linepithema humile) were released, and the plastic container was placed in the center of the bottom of a cylindrical chamber of 17.2 cm in diameter. From the height of 60 cm, the aerosol containing each compound listed in Table 2 which was fabricated according to the method mentioned in Formulation Example 2 was sprayed with a spray time of 0.34 second or 0.68 second and a spray amount of about 400 mg or 200 mg. After a lapse of seven days from spraying, the number of dead and moribund individuals was examined, and moribund and mortal rates (%) were determined by the equation 2 below. Dead individuals are completely immobile individuals, and moribund individuals are individuals who cannot get up when turned on their backs.
Moribund and mortal rates (%)={(number of dead individuals+number of moribund individuals)/number of tested individuals}×100 (Equation 2)

This is an account of results in US20240196897A1, “METHOD FOR CONTROLLING DISEASE-TRANSMITTING INSECTS USING CONDENSED HETEROCYCLIC COMPOUND” (SUMITOMO CHEMICAL COMPANY, LIMITED, priority 2021, published 2024).

As to `CCS(=O)(=O)c1cc(C)cnc1-c1nc2cc(S(=O)(=O)C(F)(F)F)ccc2o1` [Comparative compound 4], in data set [1], the “Moribund and mortal rates (%) after one day” value is on record as 15%. Besides, the “Moribund and mortal rates (%) after seven days” value was 10% in data set [2] (spray amount 200 mg) and 100% in data set [2] (spray amount 400 mg).
For `CCS(=O)(=O)c1cc(C)cnc1-c1nc2cc([S+]([O-])C(F)(F)F)ccc2o1` (stereo not drawn) [Comparative compound 3], in that order: 30%, 3% and 100%.
For `CCS(=O)(=O)c1cc(C(F)(F)F)cnc1-c1nc2cc(S(=O)(=O)C(F)(F)F)ccc2o1` [Comparative compound 2], in that order: 30%, 13% and 100%.
For the molecule `CCS(=O)(=O)c1cc(C(F)(F)F)cnc1-c1nc2cc([S+]([O-])C(F)(F)F)ccc2o1` (stereo not drawn) [Comparative compound 1], in data set [1], the “Moribund and mortal rates (%) after one day” value is 30%. In addition, the figures for the “Moribund and mortal rates (%) after seven days” value in data set [2] (spray amount 200 mg) and in data set [2] (spray amount 400 mg) were 10% and 100%, respectively.
The like results for `CCS(=O)(=O)c1cc(C2CC2)cnc1-c1nc2cc(S(=O)(=O)C(F)(F)F)ccc2o1` [Present compound B] were, in that order, 100%, 100% and 100%.
For `CCS(=O)(=O)c1cc(C2CC2)cnc1-c1nc2cc([S+]([O-])C(F)(F)F)ccc2o1` (stereo not drawn) [Present compound A], in that order: 100%, 100% and 100%.
